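Five compound concentrations were applied to cells in 96-well plates for 48 hours; endpoints were derived by simple linear interpolation of the resulting dose-response curve. GI50 marks 50% less growth.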 The source made the active and inactive calls. No stated cut-off is given here; in the data, active = GI50 up to about 1.1 µM and inactive = higher.
Columns and labels:
Experiment in all cases: inhibition of tumour cell growth, NCI panel, 48 h
786-0 = system: 786-0
ACHN = system: ACHN
COLO 205 = system: COLO 205
EKVX = system: EKVX
HCT-15 = system: HCT-15
HL-60 = system: HL-60
HT-29 = system: HT-29
IGROV-1 = system: IGROV-1
NCI-H226 = system: NCI-H226
NCI-H522 = system: NCI-H522
OVCAR-3 = system: OVCAR-3
OVCAR-8 = system: OVCAR-8
RPMI-8226 = system: RPMI-8226
SF-268 = system: SF-268
SK-MEL-28 = system: SK-MEL-28
SK-OV-3 = system: SK-OV-3
SR = system: SR
SW-620 = system: SW-620
TK-10 = system: TK-10
PC-3 = system: PC-3

Measured: GI50

Oc1cc(C2OCCCO2)cc(O)c1O
inactive: 786-0 > 100 µM | ACHN > 100 µM | COLO 205 > 100 µM | EKVX > 100 µM | HL-60 > 100 µM | HT-29 > 100 µM | IGROV-1 > 100 µM | NCI-H226 > 100 µM | NCI-H522 > 100 µM | OVCAR-3 > 100 µM | OVCAR-8 > 100 µM | RPMI-8226 > 100 µM | SF-268 > 100 µM | SK-MEL-28 > 100 µM | SK-OV-3 > 100 µM | SR > 100 µM | SW-620 > 100 µM | TK-10 > 100 µM
> 100 µM: HCT-15

CCOC(=O)C1=C(Nc2ccc(Br)cc2)OC/C1=N\NC(=O)c1ccccc1O
inactive: 786-0 15 µM | ACHN 5.13 µM | COLO 205 38.9 µM | EKVX 18.8 µM | HL-60 20.4 µM | HT-29 40.4 µM | IGROV-1 6.46 µM | NCI-H226 38.9 µM | NCI-H522 7.98 µM | OVCAR-3 21.4 µM | OVCAR-8 13.1 µM | RPMI-8226 15 µM | SF-268 12 µM | SK-MEL-28 > 81.3 µM | SK-OV-3 12.8 µM | SR 9.06 µM | SW-620 23 µM | TK-10 > 34.8 µM
11.7 µM: HCT-15

COC(=O)C1C=CCC2CCCCC21N1CCCC1 (stereo not given)
> 100 µM: HCT-15
inactive: 786-0 > 100 µM | ACHN > 100 µM | COLO 205 40.9 µM | EKVX > 100 µM | HL-60 19.7 µM | HT-29 48.1 µM | IGROV-1 > 100 µM | NCI-H226 87.7 µM | NCI-H522 53.8 µM | OVCAR-3 49.4 µM | OVCAR-8 59.4 µM | RPMI-8226 42.7 µM | SF-268 63.5 µM | SK-MEL-28 98.9 µM | SK-OV-3 > 100 µM | SR 76.7 µM | SW-620 83.6 µM | TK-10 > 100 µM

Oc1cc(-c2ccccc2)c2ccccc2n1
inactive: 786-0 > 100 µM | ACHN 33.4 µM | COLO 205 > 100 µM | HL-60 88.1 µM | HT-29 > 100 µM | IGROV-1 23.9 µM | NCI-H226 25.8 µM | NCI-H522 20.9 µM | OVCAR-8 > 100 µM | RPMI-8226 67.6 µM | SF-268 52.6 µM | SK-MEL-28 37.3 µM | SK-OV-3 20.5 µM | SR 45.5 µM | SW-620 > 100 µM | TK-10 38.6 µM
58.9 µM: HCT-15

CCCCCCCCCCCCC(CCCCCCCCCCCC)OP(=O)(O)O
88.3 µM: HCT-15
inactive: 786-0 > 100 µM | ACHN 76.2 µM | COLO 205 > 100 µM | EKVX > 100 µM | HL-60 47.3 µM | HT-29 > 100 µM | IGROV-1 87.3 µM | NCI-H226 75.9 µM | NCI-H522 84.7 µM | OVCAR-3 > 100 µM | OVCAR-8 > 100 µM | RPMI-8226 56.6 µM | SF-268 > 100 µM | SK-MEL-28 > 100 µM | SK-OV-3 > 100 µM | SR > 100 µM | SW-620 > 100 µM | TK-10 > 100 µM

CCOc1ccc(NC(=O)CC2SC(Nc3ccc(C)cc3C)=NC2=O)cc1 (stereo not given)
inactive: 786-0 > 100 µM | ACHN > 100 µM | EKVX > 100 µM | HL-60 43.8 µM | HT-29 > 100 µM | IGROV-1 > 100 µM | NCI-H226 84.3 µM | NCI-H522 5.38 µM | OVCAR-3 48.8 µM | OVCAR-8 89.1 µM | RPMI-8226 29.9 µM | SF-268 43.6 µM | SK-MEL-28 > 100 µM | SR 29.5 µM | SW-620 > 100 µM | TK-10 > 100 µM
> 100 µM: HCT-15

CC(C)NC(C)Cc1ccccc1 (stereo not given)
inactive: 786-0 > 100 µM | ACHN > 100 µM | COLO 205 > 100 µM | EKVX > 100 µM | HL-60 > 100 µM | HT-29 > 100 µM | IGROV-1 > 100 µM | NCI-H226 > 100 µM | NCI-H522 > 100 µM | OVCAR-3 > 100 µM | OVCAR-8 > 100 µM | RPMI-8226 > 100 µM | SF-268 > 100 µM | SK-MEL-28 > 100 µM | SK-OV-3 > 100 µM | SR > 100 µM | SW-620 > 100 µM | TK-10 > 100 µM
3.97 µM: HCT-15

N#CC(c1ccccc1)N(CCCCCCN(C(=O)c1ccccc1)C(C#N)c1ccccc1)C(=O)c1ccccc1 (stereo not given)
inactive: 786-0 33.7 µM | ACHN 38.4 µM | COLO 205 18.1 µM | EKVX 50.4 µM | HL-60 32.3 µM | HT-29 21.8 µM | IGROV-1 52.6 µM | NCI-H226 28.6 µM | OVCAR-3 39 µM | OVCAR-8 30.1 µM | PC-3 28.2 µM | SF-268 40.4 µM | SK-MEL-28 44.4 µM | SK-OV-3 41.4 µM | SW-620 39.3 µM | TK-10 18.7 µM
31.3 µM: HCT-15

COc1ccc2cc(C(C)C(O)c3cc(F)c(F)c(F)c3F)ccc2c1 (stereo not given)
> 100 µM: HCT-15
inactive: 786-0 > 100 µM | ACHN 42.9 µM | COLO 205 > 100 µM | EKVX 45.5 µM | HL-60 18.7 µM | HT-29 > 100 µM | IGROV-1 > 100 µM | NCI-H226 > 100 µM | OVCAR-3 98.6 µM | OVCAR-8 65.3 µM | PC-3 > 100 µM | RPMI-8226 > 100 µM | SF-268 76.4 µM | SK-MEL-28 > 100 µM | SK-OV-3 > 100 µM | SW-620 > 100 µM | TK-10 > 100 µM

N#CC(NNC(=O)Cc1ccccc1)c1ccc(O)cc1 (stereo not given)
inactive: 786-0 > 100 µM | ACHN > 100 µM | COLO 205 > 100 µM | HL-60 > 100 µM | HT-29 > 100 µM | IGROV-1 > 100 µM | NCI-H226 > 100 µM | NCI-H522 > 100 µM | OVCAR-8 > 100 µM | RPMI-8226 > 100 µM | SF-268 > 100 µM | SK-MEL-28 > 100 µM | SK-OV-3 > 100 µM | SR > 100 µM | SW-620 > 100 µM | TK-10 > 100 µM
> 100 µM: HCT-15

CCC(=O)N/N=C(\C=C\c1cccc(O)c1)c1sc(Nc2ccc(C)cc2[N+](=O)[O-])nc1C
inactive: 786-0 > 100 µM | ACHN > 100 µM | COLO 205 > 100 µM | EKVX > 100 µM | HL-60 43.4 µM | HT-29 18.6 µM | IGROV-1 > 100 µM | NCI-H226 > 100 µM | NCI-H522 45.8 µM | OVCAR-3 71.1 µM | OVCAR-8 71.3 µM | RPMI-8226 > 100 µM | SF-268 > 100 µM | SK-MEL-28 > 100 µM | SK-OV-3 > 100 µM | SR 73.8 µM | SW-620 > 100 µM | TK-10 > 100 µM
81.8 µM: HCT-15

[N-]=[N+]=Nc1ccc(CCN2CCN(c3cccc(C(F)(F)F)c3)CC2)cc1I
inactive: 786-0 > 100 µM | ACHN > 100 µM | COLO 205 > 100 µM | EKVX > 100 µM | HL-60 12.8 µM | HT-29 29.4 µM | NCI-H226 > 100 µM | NCI-H522 27.7 µM | OVCAR-3 78.9 µM | OVCAR-8 > 100 µM | RPMI-8226 13 µM | SF-268 > 100 µM | SK-MEL-28 > 100 µM | SK-OV-3 > 100 µM | SR 35.1 µM | SW-620 70.3 µM | TK-10 > 100 µM
25.2 µM: HCT-15

O=C(O)c1ccc(S(=O)(=O)c2ccccc2)c([N+](=O)[O-])c1
inactive: 786-0 > 100 µM | ACHN > 100 µM | COLO 205 > 100 µM | EKVX > 100 µM | HL-60 > 100 µM | HT-29 > 100 µM | IGROV-1 > 100 µM | NCI-H226 > 100 µM | NCI-H522 > 100 µM | OVCAR-3 > 100 µM | RPMI-8226 > 100 µM | SF-268 > 100 µM | SK-MEL-28 > 100 µM | SK-OV-3 > 100 µM | SR > 100 µM | SW-620 > 100 µM | TK-10 > 100 µM
93.1 µM: HCT-15

CN(C)CCCNC1=C(Cl)C(=O)c2c(O)ccc(O)c2C1=O
inactive: 786-0 1.36 µM | ACHN 6.1 µM | COLO 205 1.49 µM | EKVX 3.37 µM | HT-29 2.17 µM | IGROV-1 1.77 µM | NCI-H226 > 10 µM | OVCAR-3 2.24 µM | OVCAR-8 3.27 µM | PC-3 2.54 µM | SK-MEL-28 1.52 µM | SK-OV-3 > 10 µM | SW-620 1.82 µM | TK-10 3.84 µM
active: SF-268 1 µM
1.8 µM: HCT-15

CCCCc1c2c(nc3c1CCC/C3=C\c1ccccc1)/C(=C/c1ccccc1)CCC2
> 100 µM: HCT-15
inactive: 786-0 > 100 µM | ACHN > 100 µM | COLO 205 > 100 µM | EKVX > 100 µM | HL-60 > 100 µM | HT-29 > 100 µM | IGROV-1 > 100 µM | NCI-H226 > 100 µM | NCI-H522 > 100 µM | OVCAR-3 > 100 µM | OVCAR-8 > 100 µM | RPMI-8226 > 100 µM | SF-268 > 100 µM | SK-MEL-28 > 100 µM | SK-OV-3 > 100 µM | SR > 100 µM | SW-620 > 100 µM | TK-10 > 100 µM

COc1ccc2c(c1)c1c3n2CCNN=C3CCC1
inactive: 786-0 > 100 µM | ACHN 72.4 µM | COLO 205 > 91 µM | EKVX > 100 µM | HL-60 5.66 µM | HT-29 > 100 µM | IGROV-1 > 85.7 µM | NCI-H226 > 100 µM | NCI-H522 21.5 µM | OVCAR-3 > 100 µM | OVCAR-8 > 81.1 µM | RPMI-8226 29.4 µM | SF-268 88.7 µM | SK-MEL-28 > 100 µM | SK-OV-3 > 75.2 µM | SR 10.4 µM | SW-620 > 100 µM | TK-10 > 53 µM
> 70.1 µM: HCT-15
